{"source": "paper PMC11125159", "about": "(Pharmaceutics, 2024)", "assay": "Pharmacokinetic assay in rats, plasma LIRA by UPLC-MS/MS", "type": "in vivo", "settings": "male Wistar rats, subcutaneous, single dose 200 µg/kg of LIRA, mean ± SD, n = 6", "text": "Ultra-performance liquid chromatography (Acquity UPLC© Waters, Milford, MA, USA), coupled with a triple quadrupole mass spectrometer (XEVO-TQD, Waters®) equipped with a Z sprayTM electrospray ionisation source (Waters®, Milford, MA, USA), was employed to detect, and quantify LIRA levels in rat plasma after treatment. An ACQUITY UPLC BEH C18 reversed-phase chromatographic column (50 mm × 2.1 mm; 1.7 µm) was used, with a mobile phase composed of acetonitrile and ultrapure water, both acidified with 0.1% formic acid, eluted in gradient mode, with varying proportions (20/80, 45/55, 60/40, 80/20, 90/10, 80/20, 30/70, 20/80) at specific time intervals (0, 1.5, 2.0, 2.5, 3.0, 3.5, 4.5, 6.0 min), with a flow rate of 0.3 mL/min, injection volume of 2 µL, with a total analysis time of 7.5 min. The samples were maintained at a temperature of 10 °C in the sampler, while the column oven was maintained at 40 °C. Detection by mass spectrometry was carried out in positive electrospray ionisation (ESI+) mode, in multiple reaction monitoring (MRM) mode, with a source temperature of 150 °C, capillary voltage equal to 3.5 kV, desolvation temperature of 600 °C, desolvation flow of 1000 L/h and gas flow in the cone of 50 L/h. […] The transitions set at m/z 938.7 → 1064.1 for LIRA and m/z 1184.7 → 454.4 for insulin detemir. […]", "note": "Marks after values point to notes of the source that are not given here."}
{"smiles": "CCCCCCCCCCCCCCCC(=O)N[C@@H](CCC(=O)NCCCC[C@H](NC(=O)[C@H](C)NC(=O)[C@H](C)NC(=O)[C@H](CCC(N)=O)NC(=O)CNC(=O)[C@H](CCC(=O)O)NC(=O)[C@H](CC(C)C)NC(=O)[C@H](Cc1ccc(O)cc1)NC(=O)[C@H](CO)NC(=O)[C@H](CO)NC(=O)[C@@H](NC(=O)[C@H](CC(=O)O)NC(=O)[C@H](CO)NC(=O)[C@@H](NC(=O)[C@H](Cc1ccccc1)NC(=O)[C@@H](NC(=O)CNC(=O)[C@H](CCC(=O)O)NC(=O)[C@H](C)NC(=O)[C@@H](N)Cc1cnc[nH]1)[C@@H](C)O)[C@@H](C)O)C(C)C)C(=O)N[C@@H](CCC(=O)O)C(=O)N[C@@H](Cc1ccccc1)C(=O)N[C@H](C(=O)N[C@@H](C)C(=O)N[C@@H](Cc1c[nH]c2ccccc12)C(=O)N[C@@H](CC(C)C)C(=O)N[C@H](C(=O)N[C@@H](CCCNC(=N)N)C(=O)NCC(=O)N[C@@H](CCCNC(=N)N)C(=O)NCC(=O)O)C(C)C)[C@@H](C)CC)C(=O)O", "note": "[Free LIRA, Liraglutide]", "values": [{"measurement": "Cl", "value": "0.183 ± 0.015 ^b L/h"}]}
